Source: US11219221B2 (FarmHannong Co., Ltd., priority 2017, dated 2022)

Tested on: CyPPO16 wild type (SEQ ID NO: 1) in PPO-deficient E. coli BT3(ΔPPO)
Assay type: cell-based
Details: LB agar, 37° C., light, 16 to 20 hours
Experimental: (§1) The mutated CyPPO gene obtained from the Example 2 was transformed to BT3 (ΔPPO) strain which is deficient of PPO activity and cultured in LB media with PPO-inhibiting herbicide, thereby examining whether growth of transformed BT3 was not inhibited.
(§2) BT3 competent cells were transformed with the pET303-CyPPO16 and pET303-CyPPO17 plasmids and those with a mutation(s) constructed in Example 2 respectively, and were cultured in LB agar media containing carbenicillin (Gold Biotechnology, Co., Ltd.).
(§3) Single colony of E. coli transformed with each CyPPO gene was cultured in 3 ml of LB broth containing carbenicillin overnight, and then was subcultured until absorbance (0D600) reached 0.5 to 1. Then, it was diluted with LB broth to OD600=0.5. Again, the diluted solution was serially diluted 4 times by a factor of one tenth.
(§4) The LB agar media (LB 25 g/l, Bacto agar 15 g/l) containing carbenicillin (100 μg/ml) and 0 to 4,000 μM of various herbicides dissolved in DMSO was prepared. Next, 10 μl of each diluted solution was dropped on the plate and cultured at 37° C. under light (Tables 7 and 9, FIGS. 2 to 6, and 18 to 22) or dark (Tables 8 and 10, FIGS. 7 to 17, and 23 to 33) for 16 to 20 hours. Then, extent of tolerance was evaluated.
(§5) The extent of herbicide tolerance of the mutated genes was evaluated by comparing that of mutated genes with that of wild type. The relative tolerance was represented with “+” as a factor of 10 times. Evaluation result was listed in Tables 7 to10 and FIGS. 2 to 33:
(§6) In Tables 7 to 10, tolerance level was presented as of tolerance of wild type and of variants equivalent to that of wild type, and was done as ‘+’ per each 10 fold resistance until ‘+++++’ as maximal resistance. (Tolerance level was evaluated by relative growth level of variants to that of wild type in the media containing highest concentration of herbicide; ‘+’=1-9 fold higher tolerance, ‘++’=10-99 fold higher tolerance, ‘+++’=100-999 fold higher tolerance, ‘++++’=1,000-9,999 fold higher tolerance, ‘+++++’=more than 10,000 fold higher tolerance)

SMILES | Herbicide tolerance (relative to wild type)
O=C(O)c1cc(Oc2ccc(C(F)(F)F)cc2Cl)ccc1[N+](=O)[O-] [acifluorfen] | −
CS(=O)(=O)NC(=O)c1cc(Oc2ccc(C(F)(F)F)cc2Cl)ccc1[N+](=O)[O-] [fomesafen] | −

Tested on: CyPPO17 wild type (SEQ ID NO: 3) in PPO-deficient E. coli BT3(ΔPPO)
Assay type: cell-based
Details: LB agar, 37° C., light, 16 to 20 hours
Experimental: as §1, §2, §3, §4, §5, §6

SMILES | Herbicide tolerance (relative to wild type)
O=C(O)c1cc(Oc2ccc(C(F)(F)F)cc2Cl)ccc1[N+](=O)[O-] [acifluorfen] | −
CS(=O)(=O)NC(=O)c1cc(Oc2ccc(C(F)(F)F)cc2Cl)ccc1[N+](=O)[O-] [fomesafen] | −

Tested on: CyPPO16 (SEQ ID NO: 1) variant F360C in PPO-deficient E. coli BT3(ΔPPO)
Assay type: cell-based
Details: LB agar, 37° C., light, 16 to 20 hours
Experimental: as §1, §2, §3, §4
(§7) The extent of herbicide tolerance of the mutated genes was evaluated by comparing that of mutated genes with that of wild type. The relative tolerance was represented with “+” as a factor of 10 times.
(§8) In Tables 7 to 10, tolerance level was presented as of tolerance of wild type and of variants equivalent to that of wild type, and was done as ‘+’ per each 10 fold resistance until ‘+++++’ as maximal resistance.

SMILES | Herbicide tolerance (relative to wild type)
O=C(O)c1cc(Oc2ccc(C(F)(F)F)cc2Cl)ccc1[N+](=O)[O-] [acifluorfen] | ++ (10-99 fold higher tolerance)
CS(=O)(=O)NC(=O)c1cc(Oc2ccc(C(F)(F)F)cc2Cl)ccc1[N+](=O)[O-] [fomesafen] | ++ (10-99 fold higher tolerance)

Tested on: CyPPO17 (SEQ ID NO: 3) variant F359L in PPO-deficient E. coli BT3(ΔPPO)
Assay type: cell-based
Details: LB agar, 37° C., light, 16 to 20 hours
Experimental: as §1, §2, §3, §4, §7, §8

SMILES | Herbicide tolerance (relative to wild type)
O=C(O)c1cc(Oc2ccc(C(F)(F)F)cc2Cl)ccc1[N+](=O)[O-] [acifluorfen] | + (1-9 fold higher tolerance)
CS(=O)(=O)NC(=O)c1cc(Oc2ccc(C(F)(F)F)cc2Cl)ccc1[N+](=O)[O-] [fomesafen] | + (1-9 fold higher tolerance)

Tested on: CyPPO17 (SEQ ID NO: 3) variant A166C in PPO-deficient E. coli BT3(ΔPPO)
Assay type: cell-based
Details: LB agar, 37° C., light, 16 to 20 hours
Experimental: as §1, §2, §3, §4, §7, §8

SMILES | Herbicide tolerance (relative to wild type)
O=C(O)c1cc(Oc2ccc(C(F)(F)F)cc2Cl)ccc1[N+](=O)[O-] [acifluorfen] | +++ (100-999 fold higher tolerance)
CS(=O)(=O)NC(=O)c1cc(Oc2ccc(C(F)(F)F)cc2Cl)ccc1[N+](=O)[O-] [fomesafen] | + (1-9 fold higher tolerance)

Tested on: CyPPO16 (SEQ ID NO: 1) variant F360M in PPO-deficient E. coli BT3(ΔPPO)
Assay type: cell-based
Details: LB agar, 37° C., light, 16 to 20 hours
Experimental: as §1, §2, §3, §4, §7, §8

SMILES | Herbicide tolerance (relative to wild type)
O=C(O)c1cc(Oc2ccc(C(F)(F)F)cc2Cl)ccc1[N+](=O)[O-] [acifluorfen] | + (1-9 fold higher tolerance)
CS(=O)(=O)NC(=O)c1cc(Oc2ccc(C(F)(F)F)cc2Cl)ccc1[N+](=O)[O-] [fomesafen] | +++ (100-999 fold higher tolerance)

Tested on: CyPPO17 (SEQ ID NO: 3) variant F359M in PPO-deficient E. coli BT3(ΔPPO)
Assay type: cell-based
Details: LB agar, 37° C., light, 16 to 20 hours
Experimental: as §1, §2, §3, §4, §7, §8

SMILES | Herbicide tolerance (relative to wild type)
O=C(O)c1cc(Oc2ccc(C(F)(F)F)cc2Cl)ccc1[N+](=O)[O-] [acifluorfen] | +++ (100-999 fold higher tolerance)
CS(=O)(=O)NC(=O)c1cc(Oc2ccc(C(F)(F)F)cc2Cl)ccc1[N+](=O)[O-] [fomesafen] | ++ (10-99 fold higher tolerance)

Tested on: CyPPO16 (SEQ ID NO: 1) variant F360V in PPO-deficient E. coli BT3(ΔPPO)
Assay type: cell-based
Details: LB agar, 37° C., light, 16 to 20 hours
Experimental: as §1, §2, §3, §4, §7, §8

SMILES | Herbicide tolerance (relative to wild type)
O=C(O)c1cc(Oc2ccc(C(F)(F)F)cc2Cl)ccc1[N+](=O)[O-] [acifluorfen] | + (1-9 fold higher tolerance)
CS(=O)(=O)NC(=O)c1cc(Oc2ccc(C(F)(F)F)cc2Cl)ccc1[N+](=O)[O-] [fomesafen] | + (1-9 fold higher tolerance)

Tested on: CyPPO16 (SEQ ID NO: 1) variant F360I in PPO-deficient E. coli BT3(ΔPPO)
Assay type: cell-based
Details: LB agar, 37° C., light, 16 to 20 hours
Experimental: as §1, §2, §3, §4, §7, §8

SMILES | Herbicide tolerance (relative to wild type)
O=C(O)c1cc(Oc2ccc(C(F)(F)F)cc2Cl)ccc1[N+](=O)[O-] [acifluorfen] | + (1-9 fold higher tolerance)
CS(=O)(=O)NC(=O)c1cc(Oc2ccc(C(F)(F)F)cc2Cl)ccc1[N+](=O)[O-] [fomesafen] | + (1-9 fold higher tolerance)

Tested on: CyPPO17 (SEQ ID NO: 3) variant V304M in PPO-deficient E. coli BT3(ΔPPO)
Assay type: cell-based
Details: LB agar, 37° C., light, 16 to 20 hours
Experimental: as §1, §2, §3, §4, §7, §8

SMILES | Herbicide tolerance (relative to wild type)
O=C(O)c1cc(Oc2ccc(C(F)(F)F)cc2Cl)ccc1[N+](=O)[O-] [acifluorfen] | +++ (100-999 fold higher tolerance)
CS(=O)(=O)NC(=O)c1cc(Oc2ccc(C(F)(F)F)cc2Cl)ccc1[N+](=O)[O-] [fomesafen] | ++ (10-99 fold higher tolerance)

Tested on: CyPPO16 (SEQ ID NO: 1) variant A162L in PPO-deficient E. coli BT3(ΔPPO)
Assay type: cell-based
Details: LB agar, 37° C., light, 16 to 20 hours
Experimental: as §1, §2, §3, §4, §7, §8

SMILES | Herbicide tolerance (relative to wild type)
O=C(O)c1cc(Oc2ccc(C(F)(F)F)cc2Cl)ccc1[N+](=O)[O-] [acifluorfen] | ++ (10-99 fold higher tolerance)
CS(=O)(=O)NC(=O)c1cc(Oc2ccc(C(F)(F)F)cc2Cl)ccc1[N+](=O)[O-] [fomesafen] | ++ (10-99 fold higher tolerance)

Tested on: CyPPO17 (SEQ ID NO: 3) variant A166L in PPO-deficient E. coli BT3(ΔPPO)
Assay type: cell-based
Details: LB agar, 37° C., light, 16 to 20 hours
Experimental: as §1, §2, §3, §4, §7, §8

SMILES | Herbicide tolerance (relative to wild type)
O=C(O)c1cc(Oc2ccc(C(F)(F)F)cc2Cl)ccc1[N+](=O)[O-] [acifluorfen] | +++ (100-999 fold higher tolerance)
CS(=O)(=O)NC(=O)c1cc(Oc2ccc(C(F)(F)F)cc2Cl)ccc1[N+](=O)[O-] [fomesafen] | ++ (10-99 fold higher tolerance)

Tested on: CyPPO17 (SEQ ID NO: 3) variant F359C in PPO-deficient E. coli BT3(ΔPPO)
Assay type: cell-based
Details: LB agar, 37° C., light, 16 to 20 hours
Experimental: as §1, §2, §3, §4, §7, §8

SMILES | Herbicide tolerance (relative to wild type)
O=C(O)c1cc(Oc2ccc(C(F)(F)F)cc2Cl)ccc1[N+](=O)[O-] [acifluorfen] | + (1-9 fold higher tolerance)
CS(=O)(=O)NC(=O)c1cc(Oc2ccc(C(F)(F)F)cc2Cl)ccc1[N+](=O)[O-] [fomesafen] | + (1-9 fold higher tolerance)

Tested on: CyPPO16 (SEQ ID NO: 1) variant A162C in PPO-deficient E. coli BT3(ΔPPO)
Assay type: cell-based
Details: LB agar, 37° C., light, 16 to 20 hours
Experimental: as §1, §2, §3, §4, §7, §8

SMILES | Herbicide tolerance (relative to wild type)
O=C(O)c1cc(Oc2ccc(C(F)(F)F)cc2Cl)ccc1[N+](=O)[O-] [acifluorfen] | ++ (10-99 fold higher tolerance)
CS(=O)(=O)NC(=O)c1cc(Oc2ccc(C(F)(F)F)cc2Cl)ccc1[N+](=O)[O-] [fomesafen] | ++ (10-99 fold higher tolerance)

Tested on: CyPPO16 (SEQ ID NO: 1) variant F360L in PPO-deficient E. coli BT3(ΔPPO)
Assay type: cell-based
Details: LB agar, 37° C., light, 16 to 20 hours
Experimental: as §1, §2, §3, §4, §7, §8

SMILES | Herbicide tolerance (relative to wild type)
O=C(O)c1cc(Oc2ccc(C(F)(F)F)cc2Cl)ccc1[N+](=O)[O-] [acifluorfen] | + (1-9 fold higher tolerance)
CS(=O)(=O)NC(=O)c1cc(Oc2ccc(C(F)(F)F)cc2Cl)ccc1[N+](=O)[O-] [fomesafen] | +++ (100-999 fold higher tolerance)

Tested on: CyPPO17 (SEQ ID NO: 3) variant F359I in PPO-deficient E. coli BT3(ΔPPO)
Assay type: cell-based
Details: LB agar, 37° C., light, 16 to 20 hours
Experimental: as §1, §2, §3, §4, §7, §8

SMILES | Herbicide tolerance (relative to wild type)
O=C(O)c1cc(Oc2ccc(C(F)(F)F)cc2Cl)ccc1[N+](=O)[O-] [acifluorfen] | + (1-9 fold higher tolerance)
CS(=O)(=O)NC(=O)c1cc(Oc2ccc(C(F)(F)F)cc2Cl)ccc1[N+](=O)[O-] [fomesafen] | + (1-9 fold higher tolerance)

Tested on: CyPPO16 (SEQ ID NO: 1) variant V305M in PPO-deficient E. coli BT3(ΔPPO)
Assay type: cell-based
Details: LB agar, 37° C., light, 16 to 20 hours
Experimental: as §1, §2, §3, §4, §7, §8

SMILES | Herbicide tolerance (relative to wild type)
O=C(O)c1cc(Oc2ccc(C(F)(F)F)cc2Cl)ccc1[N+](=O)[O-] [acifluorfen] | ++ (10-99 fold higher tolerance)
CS(=O)(=O)NC(=O)c1cc(Oc2ccc(C(F)(F)F)cc2Cl)ccc1[N+](=O)[O-] [fomesafen] | ++ (10-99 fold higher tolerance)
